Marks after values point to notes of the source that are not given here.
What was measured:
Type in all cases: in vivo, Solanum tuberosum
Umatilla seed-tubers = test: Example 2: etiolated sprout development and tuber quality, Umatilla; conditions: 4.7 mmol/kg potato tubers, 25 days
Experimental: (§1) Methods: Ten-month-old Ranger Russet, Umatilla and Russet Burbank seed-tubers were taken from 4° C. storage and treated with trans-2-hexenal in 9.2-L glass desiccators as described in Example 1. The tubers were exposed to trans-2-hexenal for 0, 12 and 24 hours at 23° C. at a concentration of 4.7 mmol/kg potato tubers. Regardless of exposure time, all tubers remained enclosed in the chambers for the entire 24 hour period. This was accomplished by introducing the trans-2-hexenal at zero-time (into the 24 hour treatment desiccator) and after 12 hour incubation (into the 12 hour treatment desiccator) through a septum in the top of the closed desiccator. The treated tubers were planted into moistened peat/perlite/soil potting mix and placed in the dark at 24° C. to stimulate sprouting. The experiment was set up in a randomized complete block design (5 replicates) with treatments (3 cultivars×3 exposure times) arranged factorially. Effects of trans-2-hexenal exposure and cultivar on etiolated sprout development and tuber quality were assessed 25 days after removal from the 4° C. storage.

[1] = tested on: Russet Burbank seed-tubers; test: Example 3: etiolated sprout development and tuber quality after 28 days; conditions: 0.96 mmol/kg, 12 hours at 23° C.; 28 days at 15° C.
Experimental: Methods: Eleven-month-old Russet Burbank seed-tubers were taken from a 4° C. storage area and treated with 250 μL of trans-2-hexenal in a 9.2 liter (L) glass desiccator (0.96 mmol/kg potato tubers) for 12 hours at 23° C. The trans-2-hexenal was pipetted onto Whatman #1 filter paper in a glass petri dish (5.5 cm diameter) inside the desiccator. Control tubers were enclosed in a desiccator without trans-2-hexenal. Following treatment, the tubers were enclosed in 1 L […] chambers (3 tubers per chamber) that were placed at 15° C. A continuous airflow (approximately 80 mL/min; 21% O2, 79% N2) was established around the tubers through inlet and outlet ports in the lid of each chamber. Respiration rates were determined at four hour intervals over a 28 day storage period by quantifying CO2 in the outflow from each chamber with a LI-COR model 6262 infra-red gas analyzer (LI-COR Inc., Lincoln Nebr.). The experiment was set up in a randomized complete block design (5 replicates) with two treatments (control and trans-2-hexenal-treated). The effect of trans-2-hexenal exposure on the development of etiolated sprouts was assessed 28 days after removal from the 4° C. storage.

[2] = tested on: Russet Burbank seed tubers; test: Example 4: sprout inhibition by aldehyde vapors, 26 days of sprouting; conditions: for Average Sprout Length / External Pit Rating (1-4 scale) / Sprout Fresh Weight: 12 hours vapor, 26 days at 18° C.
Experimental: Methods: Eleven-month-old Russet Burbank seed tubers were taken from a 4° C. storage area and exposed to trans-2-hexenal (0.6-4.3 mmol/kg), trans-2-heptenal (0.6-3.8 mmol/kg) and trans-2-octenal (0.5-2.5 mmol/kg) vapors separately in 3.9 L glass containers for 12 hours at 23° C. The aldehydes were applied to filter paper inside petri dishes within each jar. Control tubers were enclosed in a glass container without any aldehyde. Sprouts were ‘peeping’ (approximately 3 mm in length) at the time of treatment. Following treatment, tubers were placed at 18° C. (95% relative humidity) in the dark to sprout for 26 days. The experiment was set up in a randomized complete block design (5 replicates) with chemicals and concentrations arranged factorially. Effects of the aliphatic aldehydes on the development of etiolated sprouts were documented at 20 days (photographically) and 26 days of sprouting.

[3] = tested on: Russet Burbank seed-tubers; test: Example 2: etiolated sprout development, tuber quality and soluble carbohydrates, Russet Burbank; conditions: 4.7 mmol/kg potato tubers, 25 days
Experimental: as §1

Structure (SMILES): CCC/C=C/C=O [trans-2-hexenal]
- Average Sprout Length (Umatilla seed-tubers; 12 h exposure): 0 cm/tuber
- External Pit Rating (1-4 scale) (Umatilla seed-tubers; 12 h exposure): 3.7
- Soft Rot Lesions (Umatilla seed-tubers; 12 h exposure): 2.2 no/tuber
- Sprout Fresh Weight (Umatilla seed-tubers; 12 h exposure): 0 g/tuber
- Average Sprout Length (Umatilla seed-tubers; 24 h exposure): 0 cm/tuber
- External Pit Rating (1-4 scale) (Umatilla seed-tubers; 24 h exposure): 4.0
- Soft Rot Lesions (Umatilla seed-tubers; 24 h exposure): 2.6 no/tuber
- Sprout Fresh Weight (Umatilla seed-tubers; 24 h exposure): 0 g/tuber
- Average Sprout Length [1]: 0** cm/tuber
- Sprout fresh wt [1]: 0** g/tuber
- Tuber external pit rating [1]: 2.2**
- Tuber fresh wt loss [1]: 11.8** g/tuber
- Average Sprout Length ([2]; 0.63 mmol/kg): 0.2 cm/tuber
- External Pit Rating (1-4 scale) ([2]; 0.63 mmol/kg): 1.4
- Sprout Fresh Weight ([2]; 0.63 mmol/kg): 0.04 g/tuber
- Average Sprout Length ([2]; 1.33 mmol/kg): 0 cm/tuber
- External Pit Rating (1-4 scale) ([2]; 1.33 mmol/kg): 2.0
- Sprout Fresh Weight ([2]; 1.33 mmol/kg): 0 g/tuber
- Average Sprout Length ([2]; 2.06 mmol/kg): 0 cm/tuber
- External Pit Rating (1-4 scale) ([2]; 2.06 mmol/kg): 2.6
- Sprout Fresh Weight ([2]; 2.06 mmol/kg): 0 g/tuber
- Average Sprout Length ([2]; 2.50 mmol/kg): 0 cm/tuber
- External Pit Rating (1-4 scale) ([2]; 2.50 mmol/kg): 3.5
- Sprout Fresh Weight ([2]; 2.50 mmol/kg): 0 g/tuber
- Average Sprout Length ([2]; 4.34 mmol/kg): 0 cm/tuber
- External Pit Rating (1-4 scale) ([2]; 4.34 mmol/kg): 2.8
- Sprout Fresh Weight ([2]; 4.34 mmol/kg): 0 g/tuber
- external pitting (in words) ([2]; lowest concentration): minimal
- Average Sprout Length ([3]; 12 h exposure): 0 cm/tuber
- External Pit Rating (1-4 scale) ([3]; 12 h exposure): 1.8
- Soft Rot Lesions ([3]; 12 h exposure): 0.6 no/tuber
- Soluble Carbohydrates Fru ([3]; 12 h exposure): 19.5 mg/g dry wt.
- Soluble Carbohydrates Glu ([3]; 12 h exposure): 19.0 mg/g dry wt.
- Soluble Carbohydrates Glu + Fru ([3]; 12 h exposure): 38.5 mg/g dry wt.
- Soluble Carbohydrates Suc ([3]; 12 h exposure): 6.30 mg/g dry wt.
- Sprout Fresh Weight ([3]; 12 h exposure): 0 g/tuber
- Average Sprout Length ([3]; 24 h exposure): 0 cm/tuber
- External Pit Rating (1-4 scale) ([3]; 24 h exposure): 2.2
- Soft Rot Lesions ([3]; 24 h exposure): 0.4 no/tuber
- Soluble Carbohydrates Fru ([3]; 24 h exposure): 17.8 mg/g dry wt.
- Soluble Carbohydrates Glu ([3]; 24 h exposure): 16.5 mg/g dry wt.
- Soluble Carbohydrates Glu + Fru ([3]; 24 h exposure): 34.3 mg/g dry wt.
- Soluble Carbohydrates Suc ([3]; 24 h exposure): 6.28 mg/g dry wt.
- Sprout Fresh Weight ([3]; 24 h exposure): 0 g/tuber

— US6855669B2, “Use of α,β unsaturated aliphatic aldehydes and ketones to inhibit potato tuber sprouting” (Washington State University Research Foundation, priority 2000, dated 2005)
